Calls of active or inactive are those of the source.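 Rule for the calls: active = compounds cutting recovered intracellular Salmonella colonies below 0.7 of the DMSO level; inactive = the rest.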
The compounds below were run on HeLa infected S. Typhimurium SL1344, CFU, 6 h (assay: intracellular Salmonella Typhimurium clearance, cell-based, colony forming units, HeLa, SL1344 (AID 1963953)). Details: at 20 µM; active compounds read low.

SMILES | normalized CFU (DMSO = 1)
CC(=O)N1[C@@H]2CC[C@H]1CC(Nc1nc(NCCc3sc(N)nc3C)nc(N3CCn4ncnc4C3)n1)C2 (stereo not given in full) | 0.97 (inactive)
CCC(C)(C)C(=O)C(=O)N1CCCC[C@H]1C(=O)N[C@H](CCc1ccc(OC)cc1)C(=O)N1[C@@H]2CC[C@H]1CC(NC(C)=O)C2 (stereo not given in full) | 0.77 (inactive)
CCC(C)(C)C(=O)C(=O)N1CCCC[C@H]1C(=O)N[C@H](CCc1ccc(OC)cc1)C(=O)N1[C@@H]2CC[C@H]1CC(Nc1nc(NCCc3sc(N)nc3C)nc(N3CCn4ncnc4C3)n1)C2 (stereo not given in full) | 0.31
CCC(C)(C)C(=O)C(=O)N1CCCC[C@H]1C(=O)N[C@H](CCc1ccc(OC)cc1)C(=O)N1[C@@H]2CC[C@H]1CC(Nc1nc(NCCc3ccccc3)nc(N3CCn4ncnc4C3)n1)C2 (stereo not given in full) | 0.47
CS(C)=O | 1 (inactive)
